US20250262263A1, “METHOD AND COMPOSITIONS FOR THE USE OF BOTANICAL EXTRACTS IN THE TREATMENT OF VIRAL INFECTIONS” (priority 2024, published 2025)

Tested on: VACV
Type: cell-based, vaccinia virus
Details: 100 pfu VACV, 48 HPI

## C=C(C)[C@@H]1CC[C@]2(C)CC[C@]3(C)[C@H](CC[C@@H]4[C@@]5(C)CC[C@H](O)C(C)(C)[C@@H]5CC[C@]43C)[C@@H]12 [lupeol]
  antiviral activity (VACV plaques): did not show suitable antiviral activity
